Results published in PubChem BioAssay (NCI).
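At the GI50, growth is halved. Definition used: TGI = concentration required for complete inhibition of growth.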

How the values were obtained:
Assay in all cases: NCI tumour cell line growth inhibition, 384-well format
UACC-62 melanoma = tested on: UACC-62 melanoma
UACC-257 melanoma = tested on: UACC-257 melanoma
OVCAR-5 ovarian = tested on: OVCAR-5 ovarian
KM12 colon = tested on: KM12 colon
A498 renal = tested on: A498 renal
OVCAR-8 ovarian = tested on: OVCAR-8 ovarian
A549 NSCLC = tested on: A549 NSCLC
DU-145 prostate = tested on: DU-145 prostate
HCT-15 colon = tested on: HCT-15 colon
SK-MEL-2 melanoma = tested on: SK-MEL-2 melanoma
HOP-92 NSCLC = tested on: HOP-92 NSCLC
NCI-H460 NSCLC = tested on: NCI-H460 NSCLC
UO-31 renal = tested on: UO-31 renal
CCRF-CEM leukemia = tested on: CCRF-CEM leukemia
TK-10 renal = tested on: TK-10 renal
U251 glioblastoma = tested on: U251 glioblastoma
SF-295 CNS = tested on: SF-295 CNS
NCI-H23 lung = tested on: NCI-H23 lung
ACHN renal = tested on: ACHN renal
MDA-MB-435 melanoma = tested on: MDA-MB-435 melanoma
SR leukemia = tested on: SR leukemia
OVCAR-3 ovarian = tested on: OVCAR-3 ovarian
HL-60(TB) leukemia = tested on: HL-60(TB) leukemia
SN12C renal = tested on: SN12C renal
MOLT-4 leukemia = tested on: MOLT-4 leukemia
SF-268 CNS = tested on: SF-268 CNS
SF-539 CNS = tested on: SF-539 CNS
MDA-MB-468 breast = tested on: MDA-MB-468 breast
NCI-H522 lung = tested on: NCI-H522 lung
NCI-H322M lung = tested on: NCI-H322M lung
HOP-62 NSCLC = tested on: HOP-62 NSCLC
NCI/ADR-RES ovarian = tested on: NCI/ADR-RES ovarian
M14 melanoma = tested on: M14 melanoma
MCF7 breast = tested on: MCF7 breast
K-562 leukemia = tested on: K-562 leukemia
RXF 393 renal = tested on: RXF 393 renal
NCI-H226 lung = tested on: NCI-H226 lung
HCC-2998 colon = tested on: HCC-2998 colon
LOX IMVI melanoma = tested on: LOX IMVI melanoma
SNB-19 CNS = tested on: SNB-19 CNS
786-0 renal = tested on: 786-0 renal
MDA-MB-231 breast = tested on: MDA-MB-231 breast
OVCAR-4 ovarian = tested on: OVCAR-4 ovarian
SK-MEL-28 melanoma = tested on: SK-MEL-28 melanoma
HT29 colon = tested on: HT29 colon
T-47D breast = tested on: T-47D breast
COLO 205 colon = tested on: COLO 205 colon
MALME-3M melanoma = tested on: MALME-3M melanoma
PC-3 prostate = tested on: PC-3 prostate
CAKI-1 renal = tested on: CAKI-1 renal
SW-620 colon = tested on: SW-620 colon
RPMI-8226 leukemia = tested on: RPMI-8226 leukemia
SK-MEL-5 melanoma = tested on: SK-MEL-5 melanoma
HCT-116 colon = tested on: HCT-116 colon
IGROV1 ovarian = tested on: IGROV1 ovarian

CN[C@@H](C)C(=O)N[C@H]1CN(S(=O)(=O)c2cccc(S(=O)(=O)N3CC[C@H]4CC[C@@H](C(=O)NC(c5ccccc5)c5ccccc5)N4C(=O)[C@@H](NC(=O)[C@H](C)NC)C3)c2)CC[C@H]2CC[C@@H](C(=O)NC(c3ccccc3)c3ccccc3)N2C1=O
GI50 (UACC-62 melanoma): 13.9 µM | TGI (UACC-62 melanoma): 27.5 µM | GI50 (UACC-257 melanoma): 11.7 µM | TGI (UACC-257 melanoma): 24.4 µM | GI50 (OVCAR-5 ovarian): 19.1 µM | TGI (OVCAR-5 ovarian): 34.8 µM | GI50 (KM12 colon): 12.4 µM | TGI (KM12 colon): 24.9 µM | GI50 (A498 renal): 35.8 µM | TGI (A498 renal): > 100 µM | GI50 (OVCAR-8 ovarian): 2.24 µM | TGI (OVCAR-8 ovarian): 19.3 µM | GI50 (A549 NSCLC): 46.6 µM | TGI (A549 NSCLC): > 100 µM | GI50 (DU-145 prostate): 2.3 µM | TGI (DU-145 prostate): 16.7 µM | GI50 (HCT-15 colon): > 100 µM | TGI (HCT-15 colon): > 100 µM | GI50 (SK-MEL-2 melanoma): < 0.01 µM | TGI (SK-MEL-2 melanoma): < 0.01 µM | GI50 (HOP-92 NSCLC): 0.242 µM | TGI (HOP-92 NSCLC): 2.69 µM | GI50 (NCI-H460 NSCLC): 11.2 µM | TGI (NCI-H460 NSCLC): 25.5 µM | GI50 (UO-31 renal): 76 µM | TGI (UO-31 renal): > 100 µM | GI50 (CCRF-CEM leukemia): 0.0133 µM | TGI (CCRF-CEM leukemia): 1.46 µM | GI50 (TK-10 renal): 44 µM | TGI (TK-10 renal): > 100 µM | GI50 (U251 glioblastoma): 12.6 µM | TGI (U251 glioblastoma): 25.9 µM | GI50 (SF-295 CNS): 11 µM | TGI (SF-295 CNS): 23.6 µM | GI50 (NCI-H23 lung): 0.0315 µM | TGI (NCI-H23 lung): 0.459 µM | GI50 (ACHN renal): > 100 µM | TGI (ACHN renal): > 100 µM | GI50 (MDA-MB-435 melanoma): 0.0478 µM | TGI (MDA-MB-435 melanoma): 16.8 µM | GI50 (SR leukemia): 0.0253 µM | TGI (SR leukemia): 2.82 µM | GI50 (OVCAR-3 ovarian): 2.17 µM | TGI (OVCAR-3 ovarian): 17.6 µM | GI50 (HL-60(TB) leukemia): < 0.01 µM | TGI (HL-60(TB) leukemia): < 0.01 µM | GI50 (SN12C renal): 20.8 µM | TGI (SN12C renal): 37.3 µM | GI50 (MOLT-4 leukemia): 6.56 µM | TGI (MOLT-4 leukemia): 18.6 µM | GI50 (SF-268 CNS): 13.2 µM | TGI (SF-268 CNS): 26 µM | GI50 (SF-539 CNS): 16.6 µM | TGI (SF-539 CNS): 30.2 µM | GI50 (MDA-MB-468 breast): < 0.01 µM | TGI (MDA-MB-468 breast): 0.0196 µM | GI50 (NCI-H522 lung): 0.0634 µM | TGI (NCI-H522 lung): 2.93 µM | GI50 (NCI-H322M lung): 16.6 µM | TGI (NCI-H322M lung): 30.3 µM | GI50 (HOP-62 NSCLC): 0.57 µM | TGI (HOP-62 NSCLC): 4.56 µM | GI50 (NCI/ADR-RES ovarian): 46.1 µM | TGI (NCI/ADR-RES ovarian): > 100 µM | GI50 (M14 melanoma): 20.3 µM | TGI (M14 melanoma): 44.9 µM | GI50 (MCF7 breast): 1.84 µM | TGI (MCF7 breast): 5.7 µM | GI50 (K-562 leukemia): 4.42 µM | TGI (K-562 leukemia): 22.4 µM | GI50 (RXF 393 renal): < 0.01 µM | TGI (RXF 393 renal): 0.073 µM | GI50 (NCI-H226 lung): 17.4 µM | TGI (NCI-H226 lung): 47.7 µM | GI50 (HCC-2998 colon): 11.7 µM | TGI (HCC-2998 colon): 24 µM | GI50 (LOX IMVI melanoma): 13 µM | TGI (LOX IMVI melanoma): 25.7 µM | GI50 (SNB-19 CNS): 16.6 µM | TGI (SNB-19 CNS): 30.2 µM | GI50 ([…]-0 renal): 23.5 µM | TGI (786-0 renal): 62.8 µM | GI50 (MDA-MB-231 breast): < 0.01 µM | TGI (MDA-MB-231 breast): < 0.01 µM | GI50 (OVCAR-4 ovarian): < 0.01 µM | TGI (OVCAR-4 ovarian): < 0.01 µM | GI50 (SK-MEL-28 melanoma): 12.6 µM | TGI (SK-MEL-28 melanoma): 25.2 µM | GI50 (HT29 colon): 16 µM | TGI (HT29 colon): 35.7 µM | GI50 (T-47D breast): 13.8 µM | TGI (T-47D breast): 28 µM | GI50 (COLO 205 colon): 12.5 µM | TGI (COLO 205 colon): 26 µM | GI50 (MALME-3M melanoma): < 0.01 µM | TGI (MALME-3M melanoma): 0.0336 µM | GI50 (PC-3 prostate): 15.5 µM | TGI (PC-3 prostate): 28.9 µM | GI50 (CAKI-1 renal): > 100 µM | TGI (CAKI-1 renal): > 100 µM | GI50 (SW-620 colon): 37.7 µM | TGI (SW-620 colon): > 100 µM | GI50 (RPMI-8226 leukemia): 0.0326 µM | TGI (RPMI-8226 leukemia): 1.23 µM | GI50 (SK-MEL-5 melanoma): 0.11 µM | TGI (SK-MEL-5 melanoma): 0.422 µM | GI50 (HCT-116 colon): 23.7 µM | TGI (HCT-116 colon): 87.5 µM | GI50 (IGROV1 ovarian): 16.1 µM | TGI (IGROV1 ovarian): 30.3 µM
